A word on the melting point: it is the temperature, or range, at which the solid turns liquid.

Regarding `C1=Cc2c(ccc3[nH]c4c(c23)CCN(Cc2ccccc2)CC4)OC1`, the melting point lay in the range of 157 to 160 °C.

For the compound `Cl.O=C(Cn1c2c(c3c4c(ccc31)OCCC4)CCNCC2)Nc1ccccc1`, the melting point was > 250 °C (dec.).

`O=C(Cn1c2c(c3c4c(ccc31)OCC=C4)CCN(Cc1ccccc1)CC2)Nc1ccccc1` [Example 9, 2-(10-benzyl-3,8,9,10,11,12-hexahydro-7H-azepino[4.5-b]pyrano[3,2-e]indol-7-yl)-N-phenylacetamide] yielded a melting point of 134 to 136 °C.

`O=C(O)Cn1c2c(c3c4c(ccc31)OCC=C4)CCN(Cc1ccccc1)CC2` [Example 8]: the melting point lay within 185 to 187 °C.

In turn, `Cn1c2c(c3c4c(ccc31)OCC=C4)CCN(Cc1ccccc1)CC2` [Example 1, 10-Benzyl-7-methyl-7,8,9,10,11,12-hexahydro-3H-azepino[4,5-]pyrano[3,2-e]indole] had a melting point of 112 to 114 °C.

Regarding `Cl.c1cc2[nH]c3c(c2c2c1OCCC2)CCNCC3`, the melting point is > 283 °C (dec.).

Values taken from patent US20030216378A1, “Azepino[4,5-b]pyrano[3,2-e]indoles” (priority 2000, published 2003).
